Converted amounts (≈) assume the structure as drawn. The source made the active and inactive calls. The rule behind the calls is not given here.
Key:
Escherichia coli [1] = test: Antibacterial activity against Escherichia coli MTCC 443 assessed as diameter of zone of inhibition at 500 ug/ml by agar disk diffusion method; type: functional; conditions: read-out: DIZ
Enterococcus faecalis [2] = test: Antibacterial activity against Enterococcus faecalis MTCC 439 assessed as diameter of zone of inhibition at 500 ug/ml by agar disk diffusion method; type: functional; conditions: read-out: DIZ
Staphylococcus aureus [3] = test: Antibacterial activity against Staphylococcus aureus MTCC 902 assessed as diameter of zone of inhibition at 500 ug/ml by agar disk diffusion method; type: functional; conditions: read-out: DIZ
Pseudomonas aeruginosa [4] = test: Antibacterial activity against Pseudomonas aeruginosa MTCC 2453 assessed as diameter of zone of inhibition at 500 ug/ml by agar disk diffusion method; type: functional; conditions: read-out: DIZ
Escherichia coli [5] = test: Antibacterial activity against Escherichia coli MTCC 443 assessed as inhibition of bacterial growth incubated overnight by serial dilution based spectrophotometer; type: functional
Enterococcus faecalis [6] = test: Antibacterial activity against Enterococcus faecalis MTCC 439 assessed as inhibition of bacterial growth incubated overnight by serial dilution based spectrophotometer; type: functional
Bacillus subtilis [7] = test: Antibacterial activity against Bacillus subtilis MTCC 736 assessed as inhibition of bacterial growth incubated overnight by serial dilution based spectrophotometer; type: functional
Staphylococcus aureus [8] = test: Antibacterial activity against Staphylococcus aureus MTCC 902 assessed as inhibition of bacterial growth incubated overnight by serial dilution based spectrophotometer; type: functional
Pseudomonas aeruginosa [9] = test: Antibacterial activity against Pseudomonas aeruginosa MTCC 2453 assessed as inhibition of bacterial growth incubated overnight by serial dilution based spectrophotometer; type: functional
Salmonella typhi [10] = test: Antibacterial activity against Salmonella typhi assessed as inhibition of bacterial growth incubated overnight by serial dilution based spectrophotometer; type: functional, Salmonella enterica subsp. enterica serovar Typhi; conditions: Salmonella enterica
Escherichia coli [11] = test: Bactericidal activity against Escherichia coli MTCC 443 assessed as inhibition of bacterial growth incubated overnight; type: functional
Enterococcus faecalis [12] = test: Bactericidal activity against Enterococcus faecalis MTCC 439 assessed as inhibition of bacterial growth incubated overnight; type: functional
Staphylococcus aureus [13] = test: Bactericidal activity against Staphylococcus aureus MTCC 902 assessed as inhibition of bacterial growth incubated overnight; type: functional
Pseudomonas aeruginosa [14] = test: Bactericidal activity against Pseudomonas aeruginosa MTCC 2453 assessed as inhibition of bacterial growth incubated overnight; type: functional
Enterococcus faecalis [15] = test: Ratio of MBC for antibacterial activity against Enterococcus faecalis MTCC 439 to MIC for bactericidal activity against Enterococcus faecalis MTCC 439; type: functional
Staphylococcus aureus [16] = test: Ratio of MBC for antibacterial activity against Staphylococcus aureus MTCC 902 to MIC for bactericidal activity against Staphylococcus aureus MTCC 902; type: functional
Pseudomonas aeruginosa [17] = test: Ratio of MBC for antibacterial activity against Pseudomonas aeruginosa MTCC 2453 to MIC for bactericidal activity against Pseudomonas aeruginosa MTCC 2453; type: functional
Escherichia coli [18] = test: Antibacterial activity against Escherichia coli MTCC 443 assessed as diameter of zone of inhibition at 0.5 times MIC incubated overnight by disk diffusion method; type: functional
Enterococcus faecalis [19] = test: Antibacterial activity against Enterococcus faecalis MTCC 439 assessed as diameter of zone of inhibition at 0.5 times MIC incubated overnight by disk diffusion method; type: functional
Staphylococcus aureus [20] = test: Antibacterial activity against Staphylococcus aureus MTCC 902 assessed as diameter of zone of inhibition at 0.5 times MIC incubated overnight by disk diffusion method; type: functional
Pseudomonas aeruginosa [21] = test: Antibacterial activity against Pseudomonas aeruginosa MTCC 2453 assessed as diameter of zone of inhibition at 0.5 times MIC incubated overnight by disk diffusion method; type: functional
Salmonella typhi [22] = test: Antibacterial activity against Salmonella typhi assessed as diameter of zone of inhibition at 0.5 times MIC incubated overnight by disk diffusion method; type: functional, Salmonella enterica subsp. enterica serovar Typhi
Escherichia coli [23] = test: Antibacterial activity against Escherichia coli MTCC 443 assessed as diameter of zone of inhibition at MIC incubated overnight by disk diffusion method; type: functional
Enterococcus faecalis [24] = test: Antibacterial activity against Enterococcus faecalis MTCC 439 assessed as diameter of zone of inhibition at MIC incubated overnight by disk diffusion method; type: functional
Bacillus subtilis [25] = test: Antibacterial activity against Bacillus subtilis MTCC 736 assessed as diameter of zone of inhibition at MIC incubated overnight by disk diffusion method; type: functional
Staphylococcus aureus [26] = test: Antibacterial activity against Staphylococcus aureus MTCC 902 assessed as diameter of zone of inhibition at MIC incubated overnight by disk diffusion method; type: functional
Pseudomonas aeruginosa [27] = test: Antibacterial activity against Pseudomonas aeruginosa MTCC 2453 assessed as diameter of zone of inhibition at MIC incubated overnight by disk diffusion method; type: functional
Salmonella typhi [28] = test: Antibacterial activity against Salmonella typhi assessed as diameter of zone of inhibition at MIC incubated overnight by disk diffusion method; type: functional, Salmonella enterica subsp. enterica serovar Typhi
Escherichia coli [29] = test: Antibacterial activity against Escherichia coli MTCC 443 assessed as diameter of zone of inhibition at 2 times MIC incubated overnight by disk diffusion method; type: functional
Enterococcus faecalis [30] = test: Antibacterial activity against Enterococcus faecalis MTCC 439 assessed as diameter of zone of inhibition at 2 times MIC incubated overnight by disk diffusion method; type: functional
Bacillus subtilis [31] = test: Antibacterial activity against Bacillus subtilis MTCC 736 assessed as diameter of zone of inhibition at 2 times MIC incubated overnight by disk diffusion method; type: functional
Staphylococcus aureus [32] = test: Antibacterial activity against Staphylococcus aureus MTCC 902 assessed as diameter of zone of inhibition at 2 times MIC incubated overnight by disk diffusion method; type: functional
Pseudomonas aeruginosa [33] = test: Antibacterial activity against Pseudomonas aeruginosa MTCC 2453 assessed as diameter of zone of inhibition at 2 times MIC incubated overnight by disk diffusion method; type: functional
Salmonella typhi [34] = test: Antibacterial activity against Salmonella typhi assessed as diameter of zone of inhibition at 2 times MIC incubated overnight by disk diffusion method; type: functional, Salmonella enterica subsp. enterica serovar Typhi
Escherichia coli [35] = test: Synergistic antibacterial activity against Escherichia coli MTCC 443 assessed as inhibition of bacterial growth incubated overnight in presence of ciprofloxacin by serial dilution based spectrophotometer; type: functional
Enterococcus faecalis [36] = test: Synergistic antibacterial activity against Enterococcus faecalis MTCC 439 assessed as inhibition of bacterial growth incubated overnight in presence of ciprofloxacin by serial dilution based spectrophotometer; type: functional
Staphylococcus aureus [37] = test: Synergistic antibacterial activity against Staphylococcus aureus MTCC 902 assessed as inhibition of bacterial growth incubated overnight in presence of ciprofloxacin by serial dilution based spectrophotometer; type: functional
Pseudomonas aeruginosa [38] = test: Synergistic antibacterial activity against Pseudomonas aeruginosa MTCC 2453 assessed as inhibition of bacterial growth incubated overnight in presence of ciprofloxacin by serial dilution based spectrophotometer; type: functional
Escherichia coli [39] = test: Synergistic antibacterial activity against Escherichia coli MTCC 443 assessed as fractional inhibitory concentration index incubated overnight in presence of ciprofloxacin by microdilution checkerboard assay; type: functional
Enterococcus faecalis [40] = test: Synergistic antibacterial activity against Enterococcus faecalis MTCC 439 assessed as fractional inhibitory concentration index incubated overnight in presence of ciprofloxacin by microdilution checkerboard assay; type: functional
Staphylococcus aureus [41] = test: Synergistic antibacterial activity against Staphylococcus aureus MTCC 902 assessed as fractional inhibitory concentration index incubated overnight in presence of ciprofloxacin by microdilution checkerboard assay; type: functional
Pseudomonas aeruginosa [42] = test: Synergistic antibacterial activity against Pseudomonas aeruginosa MTCC 2453 assessed as fractional inhibitory concentration index incubated overnight in presence of ciprofloxacin by microdilution checkerboard assay; type: functional
Pseudomonas aeruginosa [43] = test: Antibacterial activity against Pseudomonas aeruginosa MTCC 2453 assessed as inhibition of bacterial growth incubated overnight by spectrophotometry relative to control; type: functional
Enterococcus faecalis [44] = test: Antibacterial activity against Enterococcus faecalis MTCC 439 assessed as inhibition of bacterial growth incubated overnight by spectrophotometry relative to control; type: functional
Bacillus subtilis [45] = test: Antibacterial activity against Bacillus subtilis MTCC 736 assessed as inhibition of bacterial growth incubated overnight by spectrophotometry relative to control; type: functional
Staphylococcus aureus [46] = test: Antibacterial activity against Staphylococcus aureus MTCC 902 assessed as inhibition of bacterial growth incubated overnight by spectrophotometry relative to control; type: functional
Staphylococcus aureus [47] = test: Bacteriostatic activity against Staphylococcus aureus MTCC 902 assessed as reduction in bacterial growth at 2 times MIC measured upto 24 hrs by absorbance based assay; type: functional, organism-based
Escherichia coli [48] = test: Bacteriostatic activity against Escherichia coli MTCC 443 assessed as reduction in bacterial growth at 2 times MIC measured upto 10 hrs by absorbance based assay; type: functional, organism-based
Staphylococcus aureus [49] = test: Bacteriostatic activity against Staphylococcus aureus MTCC 902 assessed as reduction in bacterial growth at 2 times MIC measured upto 10 hrs by absorbance based assay; type: functional, organism-based
Escherichia coli [50] = test: Bacteriostatic activity against Escherichia coli MTCC 443 assessed as reduction in log phase of bacterial growth at 0.5 to 1 times MIC measured upto 24 hrs by absorbance based assay; type: functional, organism-based
Staphylococcus aureus [51] = test: Bacteriostatic activity against Staphylococcus aureus MTCC 902 assessed as reduction in bacterial growth at 0.5 to 1 times MIC measured upto 24 hrs by absorbance based assay; type: functional, organism-based

O=C1Nc2ccc(Cl)cc2/C1=N/CCNc1ccnc2cc(Cl)ccc12
zone of inhibition at 500 µg/mL (Escherichia coli [1]): 11 mm | zone of inhibition at 500 µg/mL (Enterococcus faecalis [2]): 8 mm | zone of inhibition at 500 µg/mL (Staphylococcus aureus [3]): 10 mm | zone of inhibition at 500 µg/mL (Pseudomonas aeruginosa [4]): 12 mm | MIC (Escherichia coli [5]): 256 µg/mL (≈ 664 µM) | MIC (Enterococcus faecalis [6]): 512 µg/mL (≈ 1330 µM) | MIC (Bacillus subtilis [7]): > 512 µg/mL | MIC (Staphylococcus aureus [8]): 256 µg/mL (≈ 664 µM) | MIC (Pseudomonas aeruginosa [9]): 128 µg/mL (≈ 332 µM) | MIC (Salmonella typhi [10]): > 512 µg/mL | MBC (Escherichia coli [11]): > 512 µg/mL | MBC (Enterococcus faecalis [12]): 512 µg/mL (≈ 1330 µM) | MBC (Staphylococcus aureus [13]): 256 µg/mL (≈ 664 µM) | MBC (Pseudomonas aeruginosa [14]): 128 µg/mL (≈ 332 µM) | Ratio (Enterococcus faecalis [15]): 1 | Ratio (Staphylococcus aureus [16]): 1 | Ratio (Pseudomonas aeruginosa [17]): 1 | diameter of the inhibition zone (DIZ) (Escherichia coli [18]): 11 mm | diameter of the inhibition zone (DIZ) (Enterococcus faecalis [19]): 12 mm | diameter of the inhibition zone (DIZ) (Staphylococcus aureus [20]): 13 mm | diameter of the inhibition zone (DIZ) (Pseudomonas aeruginosa [21]): 13 mm | diameter of the inhibition zone (DIZ) (Salmonella typhi [22]): 13 mm | diameter of the inhibition zone (DIZ) (Escherichia coli [23]): 12 mm | diameter of the inhibition zone (DIZ) (Enterococcus faecalis [24]): 17 mm | diameter of the inhibition zone (DIZ) (Bacillus subtilis [25]): 6 mm | diameter of the inhibition zone (DIZ) (Staphylococcus aureus [26]): 15 mm | diameter of the inhibition zone (DIZ) (Pseudomonas aeruginosa [27]): 18 mm | diameter of the inhibition zone (DIZ) (Salmonella typhi [28]): 10 mm | diameter of the inhibition zone (DIZ) (Escherichia coli [29]): 11 mm | diameter of the inhibition zone (DIZ) (Enterococcus faecalis [30]): 19 mm | diameter of the inhibition zone (DIZ) (Bacillus subtilis [31]): 8 mm | diameter of the inhibition zone (DIZ) (Staphylococcus aureus [32]): 16 mm | diameter of the inhibition zone (DIZ) (Pseudomonas aeruginosa [33]): 20 mm | diameter of the inhibition zone (DIZ) (Salmonella typhi [34]): 11 mm | MIC (Escherichia coli [35]): 32 µg/mL | MIC (Enterococcus faecalis [36]): 64 µg/mL | MIC (Staphylococcus aureus [37]): 64 µg/mL | MIC (Pseudomonas aeruginosa [38]): 8 µg/mL | fractional inhibitory concentration index (FICI) (Escherichia coli [39]): 0.249 | fractional inhibitory concentration index (FICI) (Enterococcus faecalis [40]): 1.125 | fractional inhibitory concentration index (FICI) (Staphylococcus aureus [41]): 1.25 | fractional inhibitory concentration index (FICI) (Pseudomonas aeruginosa [42]): 1.062 | inhibition (INH) (Pseudomonas aeruginosa [43]): >80% | inhibition (INH) (Enterococcus faecalis [44]): >80% | inhibition (INH) (Bacillus subtilis [45]): >80% | inhibition (INH) (Staphylococcus aureus [46]): >80% | Activity (Staphylococcus aureus [47]): inactive | Activity (Escherichia coli [48]): Active | Activity (Staphylococcus aureus [49]): Active | Activity (Escherichia coli [50]): Active | Activity (Staphylococcus aureus [51]): inactive
